# Experimental data reported in patent US7235649B2, “Isolated GRP94 ligand binding domain polypeptide and nucleic acid encoding same, and screening methods employing same” (Duke University, priority 2000, dated 2007).
# What was measured:
# [1] = biological target: casein kinase II (Homo sapiens, UniProt P68400); assay: Casein kinase II assay with casein; format: biochemical; details: 180 μM NECA or 180 μM radicicol in 3.6% DMSO, 5 μg/ml heparin, 5 mM GTP; 4 μM casein
# Method: (§1) Phosphorylation Assays. […] For the casein kinase assay, 1 unit of casein kinase 11 was incubated as described above, with the addition of 4 μM casein. […] The 25 μl reaction mixtures were incubated at 37° C. for 1 hour and quenched by addition of 10% trichloroacetic acid. Samples were analyzed by 10% SDS-PAGE gels and the phosphorylated species were quantitated using a Fuji MACBAS1000™ phosphorimaging system (Fuji Medical Systems of Stamford, Conn.).
# [2] = biological target: T1, GRP94 (Sus scrofa, UniProt Q29092); assay: [3H]-NECA binding assay (vacuum filtration); set-up: GRP94 was purified from porcine pancreas rough microsomes; from tissue; host or cells: porcine pancreas rough microsomes; species or system porcine
# [3] = biological target: T1, GRP94; assay: GRP94 autophosphorylation assay; format: biochemical, porcine; set-up: GRP94 was purified from porcine pancreas rough microsomes; from tissue; host or cells: porcine pancreas rough microsomes; details: 180 μM NECA or 180 μM radicicol in 3.6% DMSO, 5 μg/ml heparin, 5 mM GTP; 1 hour 37° C.
# Method: as §1
# [4] = biological target: T1, GRP94; assay: Isothermal titration calorimetry; format: binding, porcine; set-up: GRP94 was purified from porcine pancreas rough microsomes; from tissue; host or cells: porcine pancreas rough microsomes; details: 5 μM GRP94, 152 μM NECA stock, 25° C.
# Method: Isothermal calorimetry experiments were performed at 25° C. using a MSC calorimeter (MicroCal Inc. of Northampton, Mass.). […] Necessary corrections were made by subtracting the heats of dilution resulting from buffer addition to protein solution and ligand solution into buffer.
# [5] = tested on: BiP; assay: [3H]-NECA binding assay (vacuum filtration); set-up: species or system porcine; details: 20 nM [3H]-NECA, 60 min on ice
# Method: BiP was purified by the following procedure. A lumenal protein fraction obtained from porcine pancreas rough microsomes was cycled overnight through a 1 ml ADP-agarose and a 1 ml ATP-agarose (Sigma Chemical Co. of St. Louis, Mo.) column coupled in series. […] The BiP containing fractions were identified by SDS-PAGE, and dialyzed against 2×4 L of buffer A (110 mM KOAc, 20 mM NaCl, 25 mM K-Hepes, pH 7.2, 2 mM Mg(OAc)2 0.1 mM CaCl2). The protein sample was then applied to a SUPERDEX® 26/60 column (Amersham Pharmacia Biotech of Piscataway, N.J.) equilibrated in buffer A, and the BiP containing fractions, again identified by SDS-PAGE, were pooled and concentrated by centrifugal ultrafiltration (CENTRICON-30®; Amicon of Beverly, Mass.).
# [^3H]-NECA Binding Assay.
# In similar experiments, [^3H]-NECA binding to Hsp90 was evaluated in the presence of molybdate and NP-40, which are known to stabilize the Hsp90 conformation associated with ATP binding, as described by Sullivan et al. (1997).
# [6] = biological target: T1, GRP94; assay: [3H]-NECA competitive displacement assay; format: binding, porcine; set-up: GRP94 was purified from porcine pancreas rough microsomes; from tissue; host or cells: porcine pancreas rough microsomes; details: 10 mM Mg(OAc)2 vs nominal endogenous magnesium
# [7] = biological target: T1, GRP94; assay: Tryptophan fluorescence (ligand-induced conformational change); details: 50 μM NECA, 50 μM geldanamycin, 2.5 mM ATP or 2.5 mM ADP, 1 hour at 37° C.
# Method: Tryptophan Fluorescence. Tryptophan fluorescence measurements were conducted in a FLUOROMAX™ spectrofluorometer (Spex Industries, Inc. of Edison, N.J.) with the slit widths set to 1 nm for both excitation and emission. […] All spectra were corrected by subtraction of buffer or buffer plus ligand samples. […] Samples were then cooled to room temperature, transferred to a quartz cuvette, and the spectra collected.
# T1 sequence (Q29092 22-804): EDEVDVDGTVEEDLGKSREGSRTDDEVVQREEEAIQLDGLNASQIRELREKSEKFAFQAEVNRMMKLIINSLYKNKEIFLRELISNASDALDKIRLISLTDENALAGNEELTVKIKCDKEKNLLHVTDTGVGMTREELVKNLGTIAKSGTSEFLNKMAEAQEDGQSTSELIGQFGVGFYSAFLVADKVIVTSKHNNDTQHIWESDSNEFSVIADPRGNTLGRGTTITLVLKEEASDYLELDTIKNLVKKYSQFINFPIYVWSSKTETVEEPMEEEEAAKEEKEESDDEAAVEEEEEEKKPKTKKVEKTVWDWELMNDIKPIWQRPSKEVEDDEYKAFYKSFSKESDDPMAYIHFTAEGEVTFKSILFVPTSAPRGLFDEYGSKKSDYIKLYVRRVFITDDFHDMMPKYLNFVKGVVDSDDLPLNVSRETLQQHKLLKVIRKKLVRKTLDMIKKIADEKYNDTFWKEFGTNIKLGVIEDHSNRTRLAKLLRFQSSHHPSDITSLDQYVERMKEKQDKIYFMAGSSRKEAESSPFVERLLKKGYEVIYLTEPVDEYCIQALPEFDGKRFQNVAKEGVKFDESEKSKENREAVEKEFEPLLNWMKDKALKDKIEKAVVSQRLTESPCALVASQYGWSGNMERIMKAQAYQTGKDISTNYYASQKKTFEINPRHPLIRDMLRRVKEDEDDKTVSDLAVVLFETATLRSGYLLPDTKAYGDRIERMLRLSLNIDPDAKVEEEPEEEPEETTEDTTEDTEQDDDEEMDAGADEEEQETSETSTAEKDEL
# casein kinase II, sequence (P68400 whole entry): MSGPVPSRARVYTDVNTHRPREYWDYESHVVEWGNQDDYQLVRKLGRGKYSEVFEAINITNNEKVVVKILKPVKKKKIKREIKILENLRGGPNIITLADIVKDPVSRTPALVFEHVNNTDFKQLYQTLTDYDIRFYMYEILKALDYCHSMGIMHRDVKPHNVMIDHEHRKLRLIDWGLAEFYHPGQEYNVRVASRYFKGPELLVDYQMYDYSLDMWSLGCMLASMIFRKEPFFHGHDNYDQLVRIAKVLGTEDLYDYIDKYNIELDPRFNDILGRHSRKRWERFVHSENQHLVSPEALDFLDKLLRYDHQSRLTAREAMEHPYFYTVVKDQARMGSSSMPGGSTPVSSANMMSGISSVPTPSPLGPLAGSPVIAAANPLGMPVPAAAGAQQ
# casein kinase II, sequence (P67870 whole entry partner): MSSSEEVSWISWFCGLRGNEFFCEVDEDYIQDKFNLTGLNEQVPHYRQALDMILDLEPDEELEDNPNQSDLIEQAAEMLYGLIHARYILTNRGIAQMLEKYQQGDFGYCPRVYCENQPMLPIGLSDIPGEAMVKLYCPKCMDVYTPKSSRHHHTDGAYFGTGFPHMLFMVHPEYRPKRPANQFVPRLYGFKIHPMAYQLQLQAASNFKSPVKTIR
structure (smiles),measurement,setting,value
"CCNC(=O)[C@H]1O[C@@H](n2cnc3c(N)ncnc32)[C@H](O)[C@@H]1O [NECA, N-ethylcarboxamidoadenosine]",effect on casein kinase II activity,[1],"neither NECA nor radicicol, both of which bind to the N-terminal nucleotide binding domain of GRP94, significantly inhibit GRP94 derived or casein kinase II activity"
same,[3H]-NECA binding activity of GRP94,"[2]; 20 nM [3H]-NECA, 60 min on ice",readily detectable
same,stoichiometry of NECA bound to GRP94 at saturation (summary),[2]; ligand binding studies and isothermal titration calorimetry,1 mol NECA:mol GRP94 dimer
same,Hill plot slope of [3H]-NECA binding,[2]; saturation binding,1.2
same,binding stoichiometry of [3H]-NECA,[2]; saturation binding,0.5 mol [^3H]-NECA/mol GRP94 monomer
same,maximal binding stoichiometry of NECA,"[2]; saturation curve, FIG. 9B",1 molecule of NECA per molecule of GRP94 dimer
same,effect on GRP94 autophosphorylation activity,[3],does not significantly inhibit GRP94 autophosphorylation activity
same,binding stoichiometry of NECA by isothermal titration calorimetry,[4],1.1 mol NECA/mol GRP94 dimer
same,[3H]-NECA binding to BiP,[5],not observed
same,effect of excess Mg2+ on binding to GRP94,[6],without effect
same,change of GRP94 tryptophan fluorescence,[7],increased the tryptophan fluorescence
